The values below come from patent EP3436445B1, “HISTONE DEMETHYLASE INHIBITORS” (Celgene Quanticel Research, Inc., priority 2016, dated 2017).

The structures appear in SMILES notation.

In this assay the target is T1, Jarid1B (Homo sapiens, UniProt Q9UGL1).
T1 construct: purchased BPS Bioscience (or custom made by MolecularThroughput) 50121
T1 sequence (Q9UGL1 2-751): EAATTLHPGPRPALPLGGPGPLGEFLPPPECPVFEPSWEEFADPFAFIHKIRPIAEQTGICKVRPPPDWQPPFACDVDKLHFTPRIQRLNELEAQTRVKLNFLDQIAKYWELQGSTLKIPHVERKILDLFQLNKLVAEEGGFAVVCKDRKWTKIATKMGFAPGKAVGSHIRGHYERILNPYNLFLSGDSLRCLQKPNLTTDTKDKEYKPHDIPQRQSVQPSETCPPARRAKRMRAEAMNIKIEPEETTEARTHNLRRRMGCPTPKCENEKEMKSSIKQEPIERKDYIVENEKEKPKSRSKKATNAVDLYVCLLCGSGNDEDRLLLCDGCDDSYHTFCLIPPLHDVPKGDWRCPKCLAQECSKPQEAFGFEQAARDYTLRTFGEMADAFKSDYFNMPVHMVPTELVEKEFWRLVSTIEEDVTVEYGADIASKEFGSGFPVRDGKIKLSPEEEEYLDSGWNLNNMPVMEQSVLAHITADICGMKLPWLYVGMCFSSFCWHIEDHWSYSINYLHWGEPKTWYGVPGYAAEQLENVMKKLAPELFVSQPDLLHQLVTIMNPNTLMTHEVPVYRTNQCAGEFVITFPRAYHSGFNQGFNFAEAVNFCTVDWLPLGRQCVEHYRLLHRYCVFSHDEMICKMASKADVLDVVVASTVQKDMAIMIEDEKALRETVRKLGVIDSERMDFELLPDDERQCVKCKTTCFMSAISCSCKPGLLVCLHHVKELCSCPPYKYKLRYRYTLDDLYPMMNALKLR
In words: Jarid1B in vitro enzyme inhibition assay (TR-FRET). It counts as biochemical. The conditions noted are these: Table 5; 0.8 nM Jarid1B, H3K4me3-biotin labeled peptide; read-out: JARID1B IC5. The text has this:
This assay determines the ability of a test compound to inhibit Jarid1B, JMJD2C and JMJD3 demethylase activity. Baculovirus expressed Jarid1B (GenBank Accession #NM-006618, AA 2-751) was purchased from BPS Bioscience (Cat #50121) or custom made by MolecularThroughput. Baculovirus expressed JMJD2C (GenBank Accession #BC143571, AA 2-372) was purchased from BPS Bioscience (Cat#50105). Baculovirus expressed JMJD3 (GenBank Accession #NM-001080424, AA1043-end) was purchased from BPS Bioscience (Cat#50115).
The ability of test compounds to inhibit the activity of Jarid1B was determined in 384-well plate format under the following reaction conditions: 0.8 nM Jarid1B, 300 nM H3K4me3-biotin labeled peptide (Anaspec cat #64357), 2 µM alpha-ketoglutaric acid in assay buffer of 50 mM HEPES, pH7.3, 0.005% Brij35, 0.5 mM TCEP, 0.2 mg/ml BSA, 50 µM sodium L-ascorbate, and 2 µM ammonium iron(II) sulfate. Reaction product was determined quantitatively by TR-FRET after the addition of detection reagent Phycolink Streptavidin-allophycocyanin (Prozyme) and Europium-anti-mono-or di-methylated histone H3 lysine 4 (H3K4me1-2) antibody (PerkinElmer) in the presence of 5 mM EDTA in LANCE detection buffer (PerkinElmer) at a final concentration of 25 nM and 1 nM, respectively.
The assay reaction was initiated by the following: 2 µl of the mixture of 900 nM H3K4me3-biotin labeled peptide and 6 µM alpha-ketoglutaric acid with 2 µl of 11-point serial diluted inhibitor in 3% DMSO was added to each well of the plate, followed by the addition of 2 µl of 2.4 nM Jarid1B to initiate the reaction. The reaction mixture was incubated at room temperature for 30 minutes, and terminated by the addition of 6 µl of 5 mM EDTA in LANCE detection buffer containing 50 nM Phycolink Streptavidin-allophycocyanin and 2 nM Europium-anti-H3K4me1-2 antibody. Plates were read by EnVisionMultilabel Reader in TR-FRET mode (excitation at 320 nm, emission at 615 nm and 665 nm) after 1 hour incubation at room temperature. A ratio was calculated (665/615) for each well and fitted to determine inhibition constant (IC50).
In the case of `FC(F)(F)c1[nH]nnc1-c1ccnc(-c2cn(Cc3ccccc3)cn2)c1` [Example 72, 2-(1-benzyl-1H-imidazol-4-yl)-4-[5-(trifluoromethyl)-1H-1,2,3-triazol-4-yl]pyridine], the IC50 was in the range of 100 to 1000 nM. The same measure for `FC(F)(F)c1[nH]nnc1-c1ccnc(-c2cn(CCc3ccccc3Cl)cn2)c1` [Example 57]: not above 100 nM; for `CC(c1ccccc1)n1cnc(-c2cc(-c3nn[nH]c3C(F)(F)F)ccn2)c1` (centres unmarked) [Example 73, 2-[1-(1-phenylethyl)-1H-imidazol-4-yl]-4-[5-(trifluoromethyl)-1H-1,2,3-triazol-4-yl]pyridine]: 100 to 1000 nM.

For the compound `Cc1cc(F)ccc1Cn1cnc(-c2cc(-c3nn[nH]c3C(F)(F)F)ccn2)c1` [Example 70, 2-{1-[(4-fluoro-2-methylphenyl)methyl]-1H-imidazol-4-yl}-4-[5-(trifluoromethyl)-1H-1,2,3-triazol-4-yl]pyridine], the IC50 fell in the range of 100 to 1000 nM. The same measure for `CCOc1ccccc1CCn1cnc(-c2cc(-c3nn[nH]c3C(F)(F)F)ccn2)c1` [Example 59]: not above 100 nM. For the compound `Fc1ccc(CCn2cnc(-c3cc(-c4nn[nH]c4C(F)(F)F)ccn3)c2)cc1` [Example 77], the IC50 was not above 100 nM.

In the case of `Cc1ccc(CCn2cnc(-c3cc(-c4nn[nH]c4C(F)(F)F)ccn3)c2)cc1` [Example 91, 2-{1-[2-(4-methylphenyl)ethyl]-1H-imidazol-4-yl}-4-[5-(trifluoromethyl)-1H-1,2,3-triazol-4-yl]pyridine], the IC50 lay within 100 to 1000 nM.

For the compound `Fc1ccccc1Cn1cnc(-c2cc(-c3nn[nH]c3C(F)(F)F)ccn2)c1` [Example 62, 2-{1-[(2-fluoroprtenyl)methyl]-1H-imidazol-4-yl}-4-[5-(trifluoromethyl)-1H-1,2,3-triazol-4-yl]pyridine], the IC50 lay within 100 to 1000 nM. The same measure for `Fc1cccc(CCn2cnc(-c3cc(-c4nn[nH]c4C(F)(F)F)ccn3)c2)c1` [Example 78, 2-{1-[2-(3-fluorophenyl)ethyl]-1H-imidazol-4-yl}-4-[5-(trifluoromethyl)-1H-1,2,3-triazol-4-yl]pyridine]: not above 100 nM; for `Fc1ccc(Cn2cnc(-c3cc(-c4nn[nH]c4C(F)(F)F)ccn3)c2)c(F)c1` [Example 68, 2-{1-[(2,4-difluorophenyl)methyl]-1H-imidazol-4-yl}-4-[5-(trifluoromethyl)-1H-1,2,3-triazol-4-yl]pyridine]: 100 to 1000 nM; for `O=C(c1ccccc1)N1CCC[C@@H](n2cnc(-c3cc(-c4nn[nH]c4C(F)(F)F)ccn3)c2)C1` [Example 89, 2-{1-[(3R)-1-benzoylpiperidin-3-yl]-1H-imidazol-4-yl}-4-[5-(trifluoromethyl)-1H-1,2,3-triazol-4-yl]pyridine]: not above 100 nM.

With `Fc1ccc2c(c1)C(Cn1cnc(-c3cc(-c4nn[nH]c4C(F)(F)F)ccn3)c1)CCC2` (centres unmarked) [Example 101, 2-{1-[(7-fluoro-1,2,3,4-tetrahydronaphthalen-1-yl)methyl]-1H-imidazol-4-yl}-4-[5-(trifluoromethyl)-1H-1,2,3-triazol-4-yl]pyridine], the IC50 is not above 100 nM.

For the compound `Fc1cccc(F)c1CCn1cnc(-c2cc(-c3nn[nH]c3C(F)(F)F)ccn2)c1` [Example 87, 2-{1-[2-(2,6-difluorophenyl)ethyl]-1H-imidazol-4-yl}-4-[5-(trifluoromethyl)-1H-1,2,3-triazol-4-yl]pyridine], the IC50 lay in the range of 100 to 1000 nM. `CCC(c1ccccc1)n1cnc(-c2cc(-c3nn[nH]c3C(F)(F)F)ccn2)c1` (centres unmarked) [Example 74, 2-[1-(1-phenylpropyl)-1H-imidazol-4-yl]-4-[5-(trifluoromethyl)-1H-1,2,3-triazol-4-yl]pyridine]: the IC50 was 100 to 1000 nM. The same measure for `CCc1ccc(CCn2cnc(-c3cc(-c4nn[nH]c4C(F)(F)F)ccn3)c2)cc1` [Example 95, 2-{1-[2-(4-ethylphenyl)ethyl]-1H-imidazol-4-yl}-4-[5-(trifluoromethyl)-1H-1,2,3-triazol-4-yl]pyridine]: 100 to 1000 nM; for `FC(F)(F)c1[nH]nnc1-c1ccnc(-c2cn(Cc3ccccc3Cl)cn2)c1` [Example 64, 2-{1-[(2-chlorophenyl)methyl]-1H-imidazol-4-yl}-4-[5-(trifluoromethyl)-1H-1,2,3-triazol-4-yl]pyridine]: 100 to 1000 nM.

As for `FC(F)(F)c1ccccc1CCn1cnc(-c2cc(-c3nn[nH]c3C(F)(F)F)ccn2)c1` [Example 60, 4-[5-(trifluoromethyl)-1H-1,2,3-triazol-4-yl]-2-(1-{2-[2-(trifluoromethyl)phenyl]ethyl}-1H-imidazol-4-yl)pyridine], the IC50 is not above 100 nM.

Regarding `Fc1cc(F)c(CCn2cnc(-c3cc(-c4nn[nH]c4C(F)(F)F)ccn3)c2)c(F)c1` [Example 82, 4-[5-(trifluoromethyl)-1H-1,2,3-triazol-4-yl]-2-{1-[2-(2,4,6-trifluorophenyl)ethyl]-1H-imidazol-4-yl}pyridine], the IC50 fell in the range of 100 to 1000 nM. The same measure for `COc1cccc2c1CCCC2Cn1cnc(-c2cc(-c3nn[nH]c3C(F)(F)F)ccn2)c1` (centres unmarked) [Example 104, 2-{1-[(5-methoxy-1,2,3,4-tetrahydronaphthalen-1-yl)methyl]-1H-imidazol-4-yl}-4-[5-(trifluoromethyl)-1H-1,2,3-triazol-4-yl]pyridine]: 100 to 1000 nM; for `Cc1ccc2c(c1)C(Cn1cnc(-c3cc(-c4nn[nH]c4C(F)(F)F)ccn3)c1)CCC2` (centres unmarked) [Example 103, 2-{1-[(7-methyl-1,2,3,4-tetrahydronaphthalen-1-yl)methyl]-1H-imidazol-4-yl}-4-[5-(trifluoromethyl)-1H-1,2,3-triazol-4-yl]pyridine]: not above 100 nM. The same measure for `CC(C)(C)c1ccc(CCn2cnc(-c3cc(-c4nn[nH]c4C(F)(F)F)ccn3)c2)cc1` [Example 96, 2-{1-[2-(4-tert-butylphenyl)ethyl]-1H-imidazol-4-yl}-4-[5-(trifluoromethyl)-1H-1,2,3-triazol-4-yl]pyridine]: 100 to 1000 nM; for `Cc1ccc(Cn2cnc(-c3cc(-c4nn[nH]c4C(F)(F)F)ccn3)c2)c(F)c1` [Example 71, 2-{1-[(2-fluoro-4-methylphenyl)methyl]-1H-imidazol-4-yl}-4-[5-(trifluoromethyl)-1H-1,2,3-triazol-4-yl]pyridine]: 100 to 1000 nM. As for `COc1ccc(CCn2cnc(-c3cc(-c4nn[nH]c4C(F)(F)F)ccn3)c2)cc1` [Example 93, 2-{1-[2-(4-methoxyphenyl)ethyl]-1H-imidazol-4-yl}-4-[5-(trifluoromethyl)-1H-1,2,3-triazol-4-yl]pyridine], the IC50 is not above 100 nM.

Regarding `Fc1ccc(F)c(CCn2cnc(-c3cc(-c4nn[nH]c4C(F)(F)F)ccn3)c2)c1` [Example 88, 2-{1-[2-(2,5-difluorophenyl)ethyl]-1H-imidazol-4-yl}-4-[5-(trifluoromethyl)-1H-1,2,3-triazol-4-yl]pyridine], the IC50 was not above 100 nM. The same measure for `COc1ccc(Cn2cnc(-c3cc(-c4nn[nH]c4C(F)(F)F)ccn3)c2)cc1` [Example 67, 2-{1-[(4-methoxyphenyl)methyl]-1H-imidazol-4-yl}-4-[5-(trifluoromethyl)-1H-1,2,3-triazol-4-yl]pyridine]: 100 to 1000 nM; for `Fc1cccc(Cl)c1CCn1cnc(-c2cc(-c3nn[nH]c3C(F)(F)F)ccn2)c1` [Example 80, 2-{1-[2-(2-chloro-6-fluorophenyl)ethyl]-1H-imidazol-4-yl}-4-[5-(trifluoromethyl)-1H-1,2,3-triazol-4-yl]pyridine]: 100 to 1000 nM.
